In patent US6696417B1, “Skin and hair darkening composition” (Chesebrough-Pond's USA Co., division of Conopco, Inc., priority 1997, dated 2004):

Experiments:
tyrosinase [1] = assay: In vitro enhancement of melanin formation (Example 3); type: biochemical; settings: 18 nmoles polyamino acid; DL-DOPA, 20 nmoles lysozyme, 0.45 mg tyrosinase, acetate buffer pH 5.0; absorbance at 400 nm; control 0.120
Experimental: (§1) The assay conditions for the formation of melanin under in vitro conditions are as follows.
The control assay mixture contained 5 mmoles of DL-DOPA (Dihydroxy phenyl alanine), lysozyme 20 nmoles and 0.45 mg of tyrosinase in acetate buffer pH 5.0 in a test tube. In the experimental set 18 nmoles of the polyglutamate, a polyamino acid sequence with pI 2.5 or polyarginine pI 10.9 or polylysine pI 11.0 was used in addition to the other ingredients as defined in the control. The melanin formed was washed with the buffer, suspended in 1 N sodium hydroxide and dissolved by heating the sample at 60° C. for 5 minutes. The absorbance was measured at 400 nm.

tyrosinase [2] = assay: In vitro enhancement of melanin formation (Example 1); type: biochemical
Text: as §1
The control assay mixture contained 5 pmoles of DL-DOPA (Dihydroxy phenyl alanine), 20nmoles lysozyme and 3.2 units of tyrosinase in acetate buffer pH 5.0 in a test tube. A unit is defined as the amount of tyrosinase needed to convert 1 nmol DOPA in one minute. In the experimental set 11 nmoles of polylysine, a polyamino acid sequence with pI 11.0, was used in addition to the other ingredients as defined in the control. The melanin formed was washed with the acetate buffer, suspended in 1N sodium hydroxide and dissolved by heating the sample at 60° C. for 5 minutes. The absorbance was measured at 400 nm.

polyarginine
Melanin formed A 400 (tyrosinase [1]): 0.182

polyglutamate [reference compound]
Melanin formed A 400 (tyrosinase [1]): 0.048

polylysine
Melanin formed A 400 (tyrosinase [1]): 0.168
Melanin formed A 400 (tyrosinase [2]; 11 nmoles polyamino acid, DL-DOPA, 20 nmoles lysozyme, 3.2 units tyrosinase, acetate buffer pH 5.0, absorbance at 400 nm, control 0.120): 0.168
melanin production (in words) (tyrosinase [2]; in presence of polylysine versus control, pH 5): significantly enhanced
